From ChEMBL document CHEMBL1201862, “PubChem BioAssay data set” (2004)
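Grown in 96-well plates, cells were treated for 48 hours with each compound at five concentrations. Insufficient inhibition: endpoint recorded as highest concentration tested. GI50 = concentration required for 50% inhibition of growth.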 Active and inactive are the calls of the source. Rule as the data show it: active = GI50 up to about 1.1 µM and inactive = higher.

What was measured:
Experiment in all cases: NCI anticancer screen, dose series, 48 h
[1] = tested on: ACHN
[2] = tested on: HCT-116
[3] = tested on: XF498
[4] = tested on: HOP-62
[5] = tested on: SR
[6] = tested on: DMS-273
[7] = tested on: KM-20L2
[8] = tested on: M14
[9] = tested on: HOP-92
[10] = tested on: TK-10
[11] = tested on: A549
[12] = tested on: SF-295
[13] = tested on: PC-3
[14] = tested on: DU-145
[15] = tested on: UACC-257
[16] = tested on: Hs-578T
[17] = tested on: UACC-62
[18] = tested on: T47D
[19] = tested on: MDA-N
[20] = tested on: MCF7

| Compound | GI50 [1] | GI50 [2] | GI50 [3] | GI50 [4] | GI50 [5] | GI50 [6] | GI50 [7] | GI50 [8] | GI50 [9] | GI50 [10] | GI50 [11] | GI50 [12] | GI50 [13] | GI50 [14] | GI50 [15] | GI50 [16] | GI50 [17] | GI50 [18] | GI50 [19] | GI50 [20] |
| --- | --- | --- | --- | --- | --- | --- | --- | --- | --- | --- | --- | --- | --- | --- | --- | --- | --- | --- | --- | --- |
| CC(C)C(=O)CC(c1ccc(Br)cc1)N1N=C(C(C)C)CC1c1ccc(Br)cc1 (centres undefined) | > 100 µM (inactive) | 29.4 µM (inactive) | 21 µM (inactive) | > 100 µM (inactive) | 69 µM (inactive) | 38.1 µM (inactive) | 45.3 µM (inactive) | 66.1 µM (inactive) | 31.4 µM (inactive) | > 100 µM (inactive) | 96.8 µM (inactive) |  |  |  |  |  |  |  |  |  |
| O=C1C=C(N2CC2)C(=O)C=C1N1CC1 | 0.0423 µM (active) |  | 0.105 µM (active) | 0.136 µM (active) | 0.0258 µM (active) | 0.0617 µM (active) | 0.354 µM (active) | 0.091 µM (active) | 0.44 µM (active) | 0.136 µM (active) |  | 0.155 µM (active) | 1.11 µM (active) | 0.339 µM (active) | 0.265 µM (active) | 2.39 µM (inactive) | 0.178 µM (active) | 1.05 µM (active) | 0.515 µM (active) |  |
| CC(=O)OC/C=C\Cn1nc(Br)c(=O)[nH]c1=O | 7.87 µM (inactive) |  |  | 16.3 µM (inactive) | 4.06 µM (inactive) |  |  | 14.9 µM (inactive) | 13 µM (inactive) | 19.1 µM (inactive) | 16.7 µM (inactive) |  | 13.2 µM (inactive) | 15.7 µM (inactive) | 15.5 µM (inactive) | 21.5 µM (inactive) |  | 13.9 µM (inactive) | 15.6 µM (inactive) | 11.5 µM (inactive) |
| CNC(=O)SCC(NC(=O)CCC(N)C(=O)O)C(=O)NCC(=O)O (centres undefined) |  | > 84.7 µM (inactive) | > 100 µM (inactive) | > 100 µM (inactive) |  | > 83.9 µM (inactive) | > 100 µM (inactive) |  | > 68.4 µM (inactive) |  | > 100 µM (inactive) | > 100 µM (inactive) |  |  | > 100 µM (inactive) |  | 98.9 µM (inactive) |  |  | > 100 µM (inactive) |
| CC(C)C1OC(=O)/C=C/C=C/C=C/C=C/C=C/CC(O)C(C)C(O)CC(O)CC(O)CC(O)CC(O)CC(O)CC(O)/C=C/C1C (centres undefined) | > 100 µM (inactive) |  |  | > 100 µM (inactive) | > 100 µM (inactive) |  |  | > 100 µM (inactive) | > 100 µM (inactive) | > 100 µM (inactive) | > 100 µM (inactive) | > 100 µM (inactive) | > 100 µM (inactive) |  | > 100 µM (inactive) | > 100 µM (inactive) | > 100 µM (inactive) |  |  | > 100 µM (inactive) |
| CCOC(=O)C1(C(=O)OCC)CSC1 | > 100 µM (inactive) | > 100 µM (inactive) |  |  | > 100 µM (inactive) |  |  | > 100 µM (inactive) | > 100 µM (inactive) | > 100 µM (inactive) | > 100 µM (inactive) | > 100 µM (inactive) | > 100 µM (inactive) | > 100 µM (inactive) | > 100 µM (inactive) | > 100 µM (inactive) |  | > 100 µM (inactive) | > 100 µM (inactive) | > 100 µM (inactive) |
| CCOC(=O)N1CCN(C(=O)Nc2cccc3ccccc23)CC1 | > 10 µM (inactive) | > 10 µM (inactive) |  | > 10 µM (inactive) | > 10 µM (inactive) |  |  | > 10 µM (inactive) |  | > 10 µM (inactive) | > 10 µM (inactive) | > 10 µM (inactive) | > 10 µM (inactive) | > 10 µM (inactive) |  | > 10 µM (inactive) | > 10 µM (inactive) | > 10 µM (inactive) | > 10 µM (inactive) | > 10 µM (inactive) |
| NC(=O)Nc1ccc(C(=O)NCCCNC(=O)c2ccc(NC(N)=O)cc2)cc1 | > 100 µM (inactive) | > 100 µM (inactive) |  | > 100 µM (inactive) | > 100 µM (inactive) |  |  | > 100 µM (inactive) | > 100 µM (inactive) | > 100 µM (inactive) | > 100 µM (inactive) |  | > 100 µM (inactive) | > 100 µM (inactive) | > 100 µM (inactive) | > 100 µM (inactive) | > 100 µM (inactive) | > 100 µM (inactive) | > 100 µM (inactive) | > 100 µM (inactive) |
| C=CCN1C(=O)/C(=C/c2cccs2)N=C1SC1OC(COC(=O)c2ccccc2)C(OC(=O)c2ccccc2)C1OC(=O)c1ccccc1 (centres undefined) | > 100 µM (inactive) |  |  | > 100 µM (inactive) | > 100 µM (inactive) |  |  |  | > 100 µM (inactive) | > 100 µM (inactive) |  | > 100 µM (inactive) | > 100 µM (inactive) | > 100 µM (inactive) | > 100 µM (inactive) |  | > 100 µM (inactive) |  |  | 36.6 µM (inactive) |
| N#Cc1c(NC(=S)Nc2ccc(Cl)cc2)sc2c1CCCC2 | > 100 µM (inactive) | > 100 µM (inactive) |  |  | 25.1 µM (inactive) |  |  |  |  | > 100 µM (inactive) |  | > 100 µM (inactive) | > 100 µM (inactive) | > 100 µM (inactive) | > 100 µM (inactive) |  | > 100 µM (inactive) | > 100 µM (inactive) | > 100 µM (inactive) | > 100 µM (inactive) |
| OCC(CO)CC1COc2ccccc2O1 (centres undefined) | > 10 µM (inactive) | > 10 µM (inactive) |  | > 10 µM (inactive) | > 10 µM (inactive) |  |  | > 10 µM (inactive) |  | > 10 µM (inactive) | > 10 µM (inactive) | > 10 µM (inactive) | > 10 µM (inactive) | > 10 µM (inactive) |  | > 10 µM (inactive) | > 10 µM (inactive) | > 10 µM (inactive) | > 10 µM (inactive) | > 10 µM (inactive) |
| ICC1CCCO1 (centres undefined) | > 100 µM (inactive) | > 100 µM (inactive) | > 100 µM (inactive) |  | > 100 µM (inactive) | > 100 µM (inactive) | > 100 µM (inactive) | > 100 µM (inactive) | > 100 µM (inactive) | > 100 µM (inactive) | > 100 µM (inactive) | > 100 µM (inactive) |  |  | > 100 µM (inactive) |  |  |  |  |  |
| C[C@H](CN1CC(=O)NC(=O)C1)N1CC(=O)NC(=O)C1 |  | 82.4 µM (inactive) | > 100 µM (inactive) | > 65 µM (inactive) |  | > 100 µM (inactive) | > 87.7 µM (inactive) |  | > 100 µM (inactive) |  | > 70.5 µM (inactive) | > 100 µM (inactive) |  |  | > 100 µM (inactive) |  | > 100 µM (inactive) |  |  | 44.2 µM (inactive) |
| CC(C)=CCc1c(C)cc2cc3c(c(O)c2c1O)C(=O)C=C(O)C3(CC=C(C)C)C/C=C(\C)CO (centres undefined) |  | 37 µM (inactive) | 16.4 µM (inactive) | 36.8 µM (inactive) |  | 52.8 µM (inactive) | 39.9 µM (inactive) |  | 33.2 µM (inactive) |  | 33.3 µM (inactive) | 45.2 µM (inactive) |  |  | 43.7 µM (inactive) |  | 32.3 µM (inactive) |  |  | 42.7 µM (inactive) |
